# From patent US7563774B2, “Combination of FBPase inhibitors and antidiabetic agents useful for the treatment of diabetes” (Metabasis Therapeutics, Inc., priority 2000, dated 2009)
# Experiments:
# mouse liver FBPase = biological target: T1, mouse liver FBPase (Mus musculus, UniProt Q9QXD6); assay: Inhibition of mouse liver FBPase (Example B); format: biochemical
# T1 construct: This partially purified fraction was used for enzyme assays; from tissue; host or cells: mouse liver (45-75% ammonium sulfate fraction of homogenate)
# T1 sequence (Q9QXD6 2-338 limits assumed): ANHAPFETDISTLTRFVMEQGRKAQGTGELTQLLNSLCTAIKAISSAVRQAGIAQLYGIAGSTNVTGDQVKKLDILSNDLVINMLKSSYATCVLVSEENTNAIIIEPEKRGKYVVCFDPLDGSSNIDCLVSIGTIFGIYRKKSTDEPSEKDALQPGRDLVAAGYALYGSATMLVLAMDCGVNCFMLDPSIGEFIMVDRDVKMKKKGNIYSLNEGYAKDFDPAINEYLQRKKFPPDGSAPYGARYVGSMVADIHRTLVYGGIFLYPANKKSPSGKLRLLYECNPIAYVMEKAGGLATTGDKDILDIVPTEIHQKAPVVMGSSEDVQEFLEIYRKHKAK
# Description: (§1) Enzymatic activity was measured spectrophotometrically in reactions that coupled the formation of product (fructose 6- phosphate) to the reduction of dimethylthiazoldiphenyltetrazolium bromide (MTT) via NADP and phenazine methosulfate (PMS), using phosphoglucose isomerase and glucose 6-phosphate dehydrogenase as the coupling enzymes. […] Inhibitor concentrations were varied from 0.01 μM to 10 μM. Reactions were started by the addition of 0.002 units of pure hlFBPase and were monitored for 7 minutes at 590 nm in a Molecular Devices Plate Reader (37° C.).
# Mouse liver FBPase was obtained by homogenizing freshly isolated mouse liver in 100 mM Tris-HCl buffer, pH 7.4, containing 1 mM EGTA, and 10% glycerol. […] This fraction was redissolved in the homogenization buffer and desalted on a PD-10 gel filtration column (Biorad) eluted with same. This partially purified fraction was used for enzyme assays.
# human liver FBPase = biological target: T2, human liver FBPase (Homo sapiens, UniProt P09467); assay: Inhibition of human liver FBPase (Example A); format: biochemical
# T2 construct: made in house; host or cells: E. coli BL21
# T2 sequence (P09467 2-338 limits assumed): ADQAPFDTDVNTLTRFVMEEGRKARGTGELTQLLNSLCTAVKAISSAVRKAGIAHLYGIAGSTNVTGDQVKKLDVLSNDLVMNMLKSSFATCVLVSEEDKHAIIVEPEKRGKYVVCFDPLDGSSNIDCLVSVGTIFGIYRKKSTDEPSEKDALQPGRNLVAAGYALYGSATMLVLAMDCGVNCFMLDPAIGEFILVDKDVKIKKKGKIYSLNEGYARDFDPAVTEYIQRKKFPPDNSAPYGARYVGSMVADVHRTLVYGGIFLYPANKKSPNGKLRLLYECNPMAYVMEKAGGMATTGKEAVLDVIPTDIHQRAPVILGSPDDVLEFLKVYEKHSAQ
# Description: as §1
# rat liver FBPase = biological target: T3, rat liver FBPase (Rattus norvegicus, UniProt P19112); assay: Inhibition of rat liver FBPase (Example B); format: biochemical
# T3 construct: made in house; host or cells: E. coli BL21
# T3 sequence (P19112 2-363 limits assumed): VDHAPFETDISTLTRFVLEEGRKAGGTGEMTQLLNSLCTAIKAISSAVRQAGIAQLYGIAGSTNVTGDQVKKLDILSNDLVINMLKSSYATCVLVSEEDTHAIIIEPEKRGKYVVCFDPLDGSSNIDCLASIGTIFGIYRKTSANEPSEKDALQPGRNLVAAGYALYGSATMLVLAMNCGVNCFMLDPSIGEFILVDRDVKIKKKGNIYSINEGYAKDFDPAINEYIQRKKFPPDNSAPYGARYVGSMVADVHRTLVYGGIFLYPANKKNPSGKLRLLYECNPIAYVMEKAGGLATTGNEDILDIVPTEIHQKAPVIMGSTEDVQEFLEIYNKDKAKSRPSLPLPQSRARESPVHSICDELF
# Db/db or ob/ob mice = assay: Acute combination treatment of a glycogen phosphorylase inhibitor and an FBPase inhibitor in db/db or ob/ob mice (Example FF); format: in vivo, mouse; details: 0.5 to 300 mg/kg p.o.
# Description: Db/db or ob/ob mice are purchased at 5 weeks of age from Jackson Laboratories (Bar Harbor, Me.). The mice are maintained under standard vivarium conditions (24-26° C., 12-hour light cycle, 12-hour dark cycle) and receive standard chow and water ad libitum. At more than 10 weeks of age, animals are divided into 4 groups (n=5 to 7/group). […] Food is made available after treatment. Blood glucose levels in tail vein samples are measured by means of standard manual or automated methods.
# C57BL/KsJ db/db mice [1] = assay: Chronic combination treatment of insulin and Compound G in db/db mice (Example AA); format: in vivo, mouse; details: db/db mice, 3 weeks
# Description: Male C57BL/KsJ db/db mice were purchased at 5 weeks of age from Clea Japan, Inc. (Tokyo, Japan). The mice were maintained under standard vivarium conditions (24-26° C., 12-hour light cycle, 12-hour dark cycle) and received standard chow and water ad libitum. At 16 weeks of age, animals were divided into 2 groups (n=5 or 9-10/group). Both groups were subcutaneously injected with human recombinant insulin (Penfill N300, Novo Nordisk, Denmark) on a daily basis to adjust plasma glucose levels to the target range of 250 to 300 mg/dL.
# [2] = test system: Zucker Diabetic Fatty (ZDF) rat; assay: Glucose lowering in the ZDF rat (Example W); format: in vivo
# From the text: The Zucker Diabetic Fatty (ZDF) rat is widely used as a model for human NIDDM as the progression of the disease in these rodents is similar to that described for human […] patients. […] Clark J B, Palmer C J (1982) Diabetes 30: 126A Terrettaz J, Jeanrenaud B (1983) Endocrinology 112: 1346-1351.
# Sprague Dawley rats = assay: Oral glucose lowering in overnight fasted Sprague Dawley rats (Example G); format: in vivo, rat; details: 4 h
# Description: Oral efficacy of Compound J was assessed in overnight fasted Sprague Dawley rats. […] At 1.5 h or 4 h post drug administration, a blood sample was taken from the tail vein and analyzed for blood glucose by means of an automated glucose analyzer (HemoCue, HemoCue Inc, Mission Viejo, Calif.).
# C57BL/KsJ db/db mice [3] = assay: Acute combination treatment of insulin and Compound G in db/db mice (Example Z); format: in vivo, mouse
# Description: Male C57BL/KsJ db/db mice were purchased at 5 weeks of age from Clea Japan, Inc. (Tokyo, Japan). The mice were maintained under standard vivarium conditions (24-26° C., 12-hour light cycle, 12-hour dark cycle) and received standard chow and water ad libitum. At 20 weeks of age, animals were divided into 4 groups (n=6/group). The treatment groups were control, compound G, insulin, and the combination of compound G and insulin. […] Insulin (human recombinant insulin, Penfill R300, Novo Nordisk, Denmark) was injected subcutaneously at a dose of 1.5 U/kg. Food was removed after treatment. Blood glucose levels in tail vein samples were measured by means of a Glucoloader-F, an automatic glucose analyzer, (A&T Co., Ltd., Tokyo, Japan).
# db/db mice = assay: Glucose lowering in the db/db mouse (Example V); format: in vivo; details: last treatment day (day 18)
# Description: Treatment was for 18 days. […] Differences between groups were evaluated by the Student's t-test. Results are considered significant with p<0.05.
# [4] = test system: streptozotocin-induced diabetic rat; assay: Chronic combination treatment of a fatty acid oxidation inhibitor and an FBPase inhibitor in the streptozotocin-induced diabetic rat (Example JJ); format: in vivo; details: etomoxir 3-300 mg/kg s.c., Compound J 0.2% w/w food admixture, 2-6 weeks
# Description: Male Sprague-Dawley rats (Charles Rivers Laboratories) weighing approximately 120 g at the beginning of the study are housed under standard vivarium conditions and fed standard chow (Purina 5001). Rats are rendered diabetic by injection of 55 mg/kg body weight of streptozotocin (STZ) in citrate buffer, pH 4.7. […] Drug treatment is continued for 2-6 weeks. Blood glucose levels are monitored at regular intervals during the treatment period. At the end of the study, rats are anesthetized and instrumented with jugular vein and carotid artery catheters. Hepatic glucose production is measured using a primed constant infusion of (^3H)-6-glucose. Blood samples are taken after two hours, and the specific activity of glucose measured by […]. Hepatic glucose production rater are calculated by standard methods.
# [5] = test system: streptozotocin diabetic Sprague Dawley rats; assay: Acute combination treatment of an FBPase inhibitor and an amylin agonist in streptozotocin diabetic rats (Example HH); format: in vivo, rat; details: pramlintide 10 micrograms i.v., Compound J 300 mg/kg p.o.
# Description: Animals are then gavaged with 1 mL 50% glucose, and allowed ad libitum access to food. Blood glucose is collected from the tail vein at 0, 30, 60, 120, 180, and 240 minutes following glucose administration.
compound,measurement,setting,value
Nc1ncnc2c1ncn2[C@@H]1O[C@H](COP(=O)(O)O)[C@@H](O)[C@H]1O [AMP],IC50,mouse liver FBPase,15 µM
same,IC50,human liver FBPase,1.3 µM
same,IC50,rat liver FBPase,25 µM
"CN(C)C(=O)[C@H](O)[C@H](Cc1ccccc1)NC(=O)c1cc2cc(Cl)ccc2[nH]1 [CP-91149, reference compound]",blood glucose lowering,Db/db or ob/ob mice,significantly lower blood glucose relative to control values
"CSc1sc(N)nc1-c1ccc(P(=O)(O)O)o1 [Compound G, 2-Amino-5-methylthio-4-[2-(5-phosphono)furanyl]thiazole]",insulin dose required to lower plasma glucose to the target range,C57BL/KsJ db/db mice [1],remarkably decreased the insulin dose required
same,glycemic control,[2],significantly improved glycemic control
same,Blood Glucose,"[2]; 0.2% food admixture, Day 14",530 ± 48 mg/dL
same,"Glucose Lowering, %",Sprague Dawley rats; Compound G 10 mg/kg p.o.,48%
same,"Glucose Lowering, %",Sprague Dawley rats; Compound G 30 mg/kg p.o.,>70%
same,"Plasma Glucose, % of pretreatment values",C57BL/KsJ db/db mice [3]; after 1 hour,(84.2 +/− 1.9) %
same,Plasma Glucose,"C57BL/KsJ db/db mice [3]; after 1 hour, Compound G 200 mg/kg p.o., insulin 1.5 U/kg s.c.",650.8 ± 14.8 mg/dL
same,Plasma Glucose,C57BL/KsJ db/db mice [3]; after 4 hours,373.7 ± 24.7 mg/dL
same,"Plasma Glucose, % of pretreatment values",C57BL/KsJ db/db mice [3]; after 4 hours,(48.6 +/− 4.0) %
same,Plasma Glucose,C57BL/KsJ db/db mice [3]; after […],459.7 ± 11.5 mg/dL
same,"Plasma Glucose, % of pretreatment values",C57BL/KsJ db/db mice [3]; after […],(59.6 +/− 2.3) %
same,Plasma Glucose,C57BL/KsJ db/db mice [3]; before (0 hour),774.0 ± 18.3 mg/dL
same,"Plasma Glucose, % of pretreatment values",C57BL/KsJ db/db mice [3]; before (0 hour),(100.0 +/− 0.0) %
same,plasma glucose lowering,"C57BL/KsJ db/db mice [3]; db/db mice, acute",progressively decreased plasma glucose levels
same,blood glucose levels versus control group,db/db mice,significantly lower than those in the control group
"CCOC(=O)[C@@]1(CCCCCCOc2ccc(Cl)cc2)CO1 [etomoxir, reference compound]",Blood Glucose,[4],lowered significantly
"CC[C@H](C)[C@H](NC(=O)[C@@H]1CCCN1C(=O)CNC(=O)[C@H](Cc1ccccc1)NC(=O)[C@H](CC(N)=O)NC(=O)[C@H](CC(N)=O)NC(=O)[C@H](CO)NC(=O)[C@H](CO)NC(=O)[C@H](Cc1c[nH]cn1)NC(=O)[C@@H](NC(=O)[C@H](CC(C)C)NC(=O)[C@H](Cc1ccccc1)NC(=O)[C@H](CC(N)=O)NC(=O)[C@H](C)NC(=O)[C@H](CC(C)C)NC(=O)[C@H](CCCNC(=N)N)NC(=O)[C@H](CCC(N)=O)NC(=O)[C@@H](NC(=O)[C@H](C)NC(=O)[C@@H]1CSSC[C@H](NC(=O)[C@@H](N)CCCCN)C(=O)N[C@@H](CC(N)=O)C(=O)N[C@@H]([C@@H](C)O)C(=O)N[C@@H](C)C(=O)N[C@@H]([C@@H](C)O)C(=O)N1)[C@@H](C)O)C(C)C)C(=O)N[C@@H](CC(C)C)C(=O)N1CCC[C@H]1C(=O)N1CCC[C@H]1C(=O)N[C@H](C(=O)N[C@@H](CC(N)=O)C(=O)N[C@H](C(=O)NCC(=O)N[C@@H](CO)C(=O)N[C@@H](CC(N)=O)C(=O)N[C@H](C(=O)N[C@@H](Cc1ccc(O)cc1)C(N)=O)[C@@H](C)O)C(C)C)[C@@H](C)O [pramlintide, reference compound]",postprandial glucose excursion,[5],attenuated the postprandial glucose excursion
